Experimental data taken from patent US9551036B2, “Metabolic gene mesenchymal signatures and uses thereof” (Whitehead Institute for Biomedical Research, priority 2013, dated 2017).
“Also recorded” adds a separate entry of the source.

Legend:
HMLE-Twist-ER cells [1] = test: LC-MS measurement of cellular DHU and uracil; assay type: cell-based, human; conditions: OHT treatment of HMLE-Twist-ER cells, 15 days time course
Description: Solvents were obtained from Fisher Scientific and were Optima LC/MS grade except where otherwise specified. Cells grown in standard tissue culture plates (500,000 cells per sample) were washed twice in an ice-cold solution of 0.9% NaCl in deionized water, followed by extraction on dry ice in 1 mL 80% methanol containing 10 ng/mL phenylalanine-d8 and valine-d8 (Sigma-Aldrich) as internal standards. The cell mixtures were shaken vigorously on a Vortex mixer for 10 min. at 4° C., vacuum-dried, and resuspended in 100 μL LC/MS grade water (Fisher). These extracts were then centrifuged at 15,000×g at 4° C. for 10 min, and the supernatants were passed through a cellulose acetate particulate filter (National Scientific). […]
The UPLC system was coupled to a QExactive orbitrap mass spectrometer equipped with a HESI II probe (Thermo Fisher Scientific) operating in positive ion mode. […] Quantitation of the data was performed with XCalibur QuanBrowser 2.2 (Thermo Fisher Scientific) using a 5 ppm mass tolerance, by a researcher blinded to the identity of the samples. Pure thymine (T0376), and uracil (U1128) were obtained from Sigma-Aldrich and dihydrothymine (L01996), and dihydrouracil (L01918) were obtained from Alfa Aesar and were run in half-log serial dilution (3 nM-100 μM) to confirm chromatographic retention times and generate standard curves for quantitation of each analytical batch.

HMLE-Twist-ER cells [2] = test: in vitro mammosphere formation assay; assay type: cell-based, human; conditions: HMLE-Twist-ER cells expressing shDPYD_1, exogenous addition of metabolite
Description: 500 cells/well were seeded in 96-well ultra-low adhesion plates (Corning, 3474) in MammoCult Basal Medium (Stem Cell Technology, 05621) containing 2.6% methylcellulose (Stem Cell Technology, H4100) and 10% MammoCult Proliferation Supplements (Stem Cell Technology, 05621), supplemented with 0.5 μg/ml hydrocortisone, 4 μg/ml Heparin and Pen/strep. Spheres were counted 12-14 days later.

Row | Compound | increase of cellular DHU/uracil molar ratio (HMLE-Twist-ER cells [1]) [fold] | rescue of mammosphere formation (HMLE-Twist-ER cells [2])
1 | 4-hydroxytamoxifen [OHT] | 5 | 
2 | CC1CNC(=O)NC1=O (stereo not shown) [DHT, dihydrothymine] |  | dose-dependent rescue of mammosphere formation
3 | O=C1CCNC(=O)N1 [DHU, dihydrouracil] |  | more strongly than uracil; also recorded: dose-dependent rescue of mammosphere formation
4 | O=c1cc[nH]c(=O)[nH]1 [uracil] |  | significantly smaller effect
